According to US20100029652A1, “Combination Therapy For Treating Hepatitis C Infections” (ACHILLION PHARMACEUTICALS, INC., priority 2007, published 2010):

Legend:
[1] = test system: HCV replicon in Huh-9-13 cells; experiment: Long term combination study: replicon curing assay, colony formation after G418 selection; type: cell-based, hepatitis C virus; settings: approximately 5×EC50
Protocol: In other repetitions of this experiment, treatment time varied from 7 to 10 days. Cells were passaged once every 3 days into new plates at the same density (10^5 cells/plate) and with fresh compounds. No G418 was present during the 9 day treatment. On day 10, the cells were passaged again to new plates at a density of 10^5 cells/plate, respectively, and were treated only with G418 for approximately 3 more weeks. […] During the 2˜3 weeks, the old media were replaced with fresh media twice a week. The colonies were fixed with 10% formaldehyde and stained with 2% crystal violet in 20% ethanol.
In this assay, the number of the cells in which the replicons still remained after the 9-day treatment was quantified based on the number of the colonies formed after G418 selection.

[2] = test system: HCV replicon (subtype 1b, Con-1) in Huh-luc/neo cells; experiment: Short term combination study: HCV replicon luciferase assay in Huh-luc/neo cells, 3-days treatment; type: cell-based, hepatitis C virus; settings: for CI (SD) at Replicon inhibition of 50% / CI (SD) at Replicon inhibition of 75% / CI (SD) at Replicon inhibition of 90%: combined with ACH-806, Chou and Talalay; for CI (SD) at Replicon inhibition of 50% / CI (SD) at Replicon inhibition of 75% / CI (SD) at Replicon inhibition of 90% / Overall combinatory antiviral activity / Volume (SD) Antagonism / Volume (SD) Synergy: 3-days treatment; for Overall combinatory antiviral activity / Volume (SD) Antagonism / Volume (SD) Synergy: drug combined with ACH-806; for Volume (SD) Antagonism / Volume (SD) Synergy: Prichard and Shipman model; for combination effect on antiviral activity: in combination with ACH-806, Huh-luc/neo cells treated for 3 days
Protocol: Huh-luc/neo cells were seeded in 96-well plates at a density of 7000 cells/per well. […] Dose-response curves for the individual compounds and their combinations were all run in quadruplicate.
The experimental data were analyzed using CalcuSyn (Biosoft, Ferguson, Mo.), a computer program based on the method of Chou and Talalay (Chou, T. C. and P. Talalay, Quantitative analysis of dose-effect relationships: the combined effects of multiple drugs or enzyme inhibitors (1984) Adv. Enzyme Regul. 22: 27-55). In this model, the dose-effect curves for each drug or drug combination are converted to median-effect plots with the program. The effect of combination is then compared to that of a single agent. A combination index (CI) value for each experimental combination is calculated on the basis of the following equation:
CI=[(D)1/(Dx)1]+[(D)2/(Dx)2]+[(D)1(D)2/(Dx)1(Dx)2],
By convention a CI of <0.9 is considered synergistic, a CI of ≧0.9 or ≦1.1 is considered additive, and a CI of >1.1 is deemed antagonistic.
The extent of synergy or antagonism was also assessed in a three-dimensional analytical method developed by Prichard and Shipman (Prichard, M. Shipman, K., A three-dimensional model to analyze drug-drug interactions, (1990) Antiviral Res. 14: 181-206). In this model, the theoretical additive effect is calculated from the dose-response curves of individual compounds by the equation Z=X+Y(1−X), where X and Y represent the inhibition produced by drug 1 alone and drug 2 alone, and respectively Z represents the effect produced by the combination of drug 1 and drug 2. The theoretical additive surface is subtracted from the actual experimental surface, resulting in a surface that would appear as a horizontal plane at 0% inhibition if the combination were merely additive. Any peak above this plane would indicate synergy, whereas any depression below it would indicate antagonism. The 95% confidence intervals for the experimental dose-response surface are used to evaluate the data statistically. The volume of the peak or depression is calculated to quantify the overall synergy or antagonism produced. Based on Prichard et al., volumes of synergy greater than 50 μM^2% may be considered significant as may volumes of antagonism of less than −50 μM^2%, wherein the units of the X and Y axis are both μM and the unit of the Z axis is the percentage of inhibition. Results

[3] = single agent by itself, 9-day treatment
[4] = in combination with ACH-806, 9-day treatment

SMILES	log reduction of replicon-containing cells [1, 3] [log]	replicon-containing cells cured [1, 3]	log reduction of replicon-containing cells [1, 4] [log]	replicon-containing cells cured [1, 4] [%]	CI (SD) at Replicon inhibition of 50% ([2]; molar ratio 1:16)	CI (SD) at Replicon inhibition of 75% ([2]; molar ratio 1:16)	CI (SD) at Replicon inhibition of 90% ([2]; molar ratio 1:16)	CI (SD) at Replicon inhibition of 50% ([2]; molar ratio 1:32)	CI (SD) at Replicon inhibition of 75% ([2]; molar ratio 1:32)	CI (SD) at Replicon inhibition of 90% ([2]; molar ratio 1:32)	Overall combinatory antiviral activity [2]	Volume (SD) Antagonism [2]	Volume (SD) Synergy [2]	combination effect on antiviral activity [2]	CI (SD) at Replicon inhibition of 50% ([2]; molar ratio 1:10)	CI (SD) at Replicon inhibition of 75% ([2]; molar ratio 1:10)	CI (SD) at Replicon inhibition of 90% ([2]; molar ratio 1:10)	CI (SD) at Replicon inhibition of 50% ([2]; molar ratio 1:20)	CI (SD) at Replicon inhibition of 75% ([2]; molar ratio 1:20)	CI (SD) at Replicon inhibition of 90% ([2]; molar ratio 1:20)
CCCCCOc1ccc(NC(=S)NC(=O)c2cccnc2)cc1C(F)(F)F [ACH-806]	1	about 90%																		
CC1(O)C(O)C(CO)OC1n1ccc(N)nc1=O (centres unmarked) [NM-107]	1	about 90%	4	~99.99	0.69 (0.02)	0.72 (0.06)	0.79 (0.12)	0.67 (0.07)	0.71 (0.05)	0.83 (0.25)	Synergy	2 (2) μM^2%	116 (77) μM^2%	synergistic antiviral activity						
CCC[C@H](NC(=O)[C@@H]1[C@H]2CCC[C@H]2CN1C(=O)[C@@H](NC(=O)[C@@H](NC(=O)c1cnccn1)C1CCCCC1)C(C)(C)C)C(=O)C(=O)NC1CC1 [VX-950, telaprevir]											Synergy	8 (3) μM^2%	119 (4) μM^2%	synergistic antiviral activity	0.86 (0.09)	0.82 (0.11)	0.83 (0.13)	0.79 (0.06)	0.61 (0.12)	0.50 (0.15)
